Measured values taken from patent US20210040485A1, “Elimination or Neutralization of Endogenous High Molecular Weight FGF-2 Increases Cardiac Resistance to Doxorubicin-Induced Damage” (University of Manitoba, priority 2018, published 2021).
Like-named read-outs stand apart in the source and are kept apart here.

Legend:
[1] = clinic; cited from earlier work
[2] = system: r-cardiomyocytes co-cultured with human FibiPSC; experiment: FibiPSC-cardiomyocyte co-cultures exposed to Dox: cTnT release; type: cell-based, rat; conditions: control (IgG) co-cultures with h-FibiPSC; Dox 0.5 μM, 24 h
Method: Fib^iPSC-Cardiomyocyte co-cultures. Cardiomyocytes were plated at a density of 5×10^4 cells/cm^2 on collagen coated plates in the presence of 20% (FBS) in Hams F-10 culture medium. After 24 hours, the media was changed to low serum medium (0.5% FBS, 1% insulin, 1% transferrin/selenium, 1% ascorbic acid, and 1% bovine serum albumin) in Dulbecco's modified Eagle's medium (DMEM). FibiPSC were added to the cultures at a density of 3×10^4/cm^2. Human Hi-FGF2 antibody (Hi-Ab, 20 μg/ml) or non-immune rabbit IgG was added to the culture after 6 hours. The Hi-Ab and rabbit IgG were supplemented in the co-cultures every 24 hours. […] Subsequently, the media was collected and stored at −80° C.
Protein extraction and immunoblotting (western blot).
Hi-FGF2 antibody. Anti-Hi-FGF2 antibody (Hi-Ab) against 12 amino acids from the N-terminal section of the Hi-FGF2 “[…]” (SEQ ID NO:1) was made in rabbit and affinity purified by Genscript. Characterization was done as we described previously, for a similar preparation anti-Hi-FGF2 (9). Affinity purified Hi-Ab was used at a concentration of 20 μg/ml in in vitro models.

[3] = system: FGF2(WT), FGF2(−), FGF2(Hi), FGF2(Lo) mice; experiment: In vivo model for acute Doxorubicin effects: mortality and body weight; parameters: species or system mouse; conditions: for effect on body weight: all groups, 10 days post-injection; for Dox-induced mortality: by day 10 post-Dox
From the text: In vivo model for acute cardiotoxic effects. […] Hearts were then collected for biochemical analyses.

cancer patients = conditions: cited from earlier work
[4] = system: Bnip3 protein in hearts of FGF2 mouse strains; conditions: in vivo
Method: Protein (western) immunoblotting. At the end of the in vivo study, hearts were collected, snap frozen in liquid nitrogen, and stored at −80° C. Hearts were powdered with liquid nitrogen using a mortar and pestle prior to being homogenized in 10 mM Tris-HCl pH 7.4, 100 mM NaCl, 300 mM sucrose, 2 mM MgCl2, 1% thiodiglycol, 60 mM B glycerophosphate, 10 mM NaF and an equal volume of 20% glycerol, 100 mM Tris/HCl PH=6.8, and 2% sodium dodecyl sulphate (SDS). All buffers were supplemented (1:100) with protease inhibitor cocktail (Sigma-Aldrich, #8304) and phosphatase inhibitor cocktail set II and IV (Calbiochem, #524625 and #524628). Samples were boiled, sonicated, and centrifuged 15 minutes at 21,000 g to remove cellular debris. Protein concentration was measured by bicinchoninic acid assay. Following SDS-polyacrylamide gel electrophoresis and protein transfer to polyvinylidene fluoride (PVDF) membranes, total protein was stained using 2% Ponceau S (Sigma-Aldrich, P3504) (w/v) in 30% trichloroacetic acid to assess overall protein transfer. Non-specific binding sites were blocked by incubation in 10% milk/TBS-T for 1 hour at room temperature. […]
Protein extraction and immunoblotting (western blot). […] Protein concentration was measured using the bicinchoninic acid assay from Sigma. […]

[5] = system: neonatal rat ventricular cardiomyocytes co-cultured with MEFs; experiment: MEF-cardiomyocyte co-cultures exposed to Dox: Troponin T release into medium; type: cell-based; conditions: Dox 0.5 μM, 24 h
Method: In vitro experiments. Neonatal rat ventricular cardiomyocytes (referred to as ‘cardiomyocytes’) were isolated from 1-2 day old rat pups as previously described (10).
MEF-Cardiomyocyte co-cultures. Cardiomyocytes were plated at a density of 5×10^4 cells/cm^2 on collagen (Corning, #354236) coated glass coverslips in the presence of 20% fetal bovine serum (FBS) in Hams F-10 culture medium; 24 hours later the media was changed and MEFS from FGF2(WT), FGF2(−), FGF2(Hi), and FGF2(Lo) strains (2×10^4/cm^2) were added to the cultures in low-serum medium (0.5% FBS, 1% insulin, 1% transferrin/selenium, and 1% ascorbic acid) in Dulbecco's modified Eagle's medium (DMEM). […] Conditioned media were collected 24 h later, and stored at −80° C. Cells attached on coverslips were used for the Calcein-AM/Cobalt chloride mPTP assay.
Primary mouse embryonic fibroblasts (MEFs)-r-cardiomyocyte co-cultures. MEFs were isolated as described (30). R-cardiomyocytes were plated at a density of 5×10^4 cells/cm^2 on collagen (Corning, #354236) coated glass coverslips in the presence of 20% fetal bovine serum (FBS) in Hams F-10 culture medium; 24 hours later the media was changed and MEFS from FGF2(WT) and FGF2(Lo) strains (2×10^4/cm^2) were added to the cultures in low-serum medium (0.5% FBS, 1% insulin, 1% transferrin/selenium, and 1% ascorbic acid) in Dulbecco's modified Eagle's medium (DMEM). […]

In the case of pertuzumab, the half life [1] is given as 18 days.
For Doxorubicin, the “cardiomyocyte damage measured by cTnT release” value [2] was “robust cardiomyocyte damage”, the “effect on body weight” value [3] was “some weight loss” and the “effect on body weight” value ([3]; listed as Doxorubicin) was “significantly decreased body weight”. For the same substance, the “deaths associated with Dox administration” value ([3]; female FGF2(WT) and FGF2(Lo) groups) was “No death”, the Dox-induced mortality ([3]; female FGF2(−) mice) was 30% and the post-Dox mortality ([3]; male FGF2(Hi) mice) was 20%. The post-Dox mortality ([3]; male FGF2(WT) mice) was 10%, the Dox-induced mortality ([3]; male FGF2(−) mice) was 70% and the “deaths associated with Dox administration” value ([3]; males, in either the FGF2(WT) or the FGF2(Lo) group) was “one death in ten animals”. The “deaths post-Dox” value ([3]; remaining female groups (other than FGF2(−))) was “No deaths”, the incidence of cardiotoxicity (cancer patients; cumulative dose 400 mg/m^2) was 3-5% and the incidence of cardiotoxicity (cancer patients; cumulative dose 700 mg/m^2) was 18-48%. For the same substance, the “upregulation of cardiac Bnip3 protein versus saline-treated group” value [4] was 1.5 fold, the “Dox-induced cTnT release” value ([5]; co-cultures with FGF2(WT) MEFs) was “observed” and the “Dox-induced Tn-T release” value ([5]; co-cultures with FGF2(WT), FGF2(−) and FGF2(Hi) MEFs) was “observed”.
In the case of infliximab, the half life [1] is given as 9.5 days.
